Experimental data published in patent US20100292278A1, “Methods of treating vascular disease and injury” (priority 2009, published 2010).

Experiments:
[1] = test system: miR-29a; test: qRT-PCR of miR-29 expression level in H9c2 cells; type: cell-based, rat
Description: (§1) The cardiac muscle cell H9c2 was maintained in complete growth medium, supplemented with 10% FBS, penicillin G (100 IU/ml). Cells were incubated at 37° C. in a humidified atmosphere (5% CO2/95% air). Passages 5-9 were used for all experiments. Exponentially growing H9c2 cells were seeded at 1×10^5 per 100 mm plate and incubated until 60-70% confluent. Cells were treated with: 1) vehicle alone (2% ethanol); 2) 10 nM PIO; 3) 1 μM GW9662; 4) 10 nM PIO+1 μM GW9662. PIO was dissolved in 70% ethanol. 24 hours later, cells were harvested and total RNA enriched with small RNAs was isolated using mirVana miRNA Isolation Kit (Ambion). MiR-29 levels were measured using the mirVana qRT-PCR miRNA Detection Kit (Ambion). Reactions containing mirVana qRT-PCR Primer Sets were specific for rat miR-29. The appropriate cycle threshold (Ct) was determined by using the automatic baseline determination feature. The expression of miR-29 between RNA samples was calculated. Data were normalized by evaluating U6 expression.

[2] = test system: miR-29c; test: qRT-PCR of miR-29 expression level in H9c2 cells; type: cell-based, rat
Description: as §1

[3] = 10 nM PIO + 1 μM GW9662, 24 hours
[4] = single agent, 24 hours, 10 nM PIO or 1 μM GW9662, vs vehicle control

O=C(Nc1ccccc1)c1cc([N+](=O)[O-])ccc1Cl [GW9662]
effect of PIO on miR-29a level in H9c2 cells (qRT-PCR) [1, 3]: block the effect of PIO
miR-29a level in H9c2 cells (qRT-PCR) [1, 4]: no effect
effect of PIO on miR-29c level in H9c2 cells (qRT-PCR) [2, 3]: block the effect of PIO
miR-29c level in H9c2 cells (qRT-PCR) [2, 4]: no effect
